This is an account of results in patent EP1857440A1, “Novel compounds, isomer thereof, or pharmaceutically acceptable salts thereof as vanilloid receptor antagonist; and pharmaceutical compositions containing the same” (Amorepacific Corporation, priority 2006, dated 2007).

By IC50 is commonly meant the concentration that inhibits the measured activity by half.

For experiment [1], the target named is T1, vanilloid receptor (Rattus norvegicus, UniProt O35433).
T1 construct: DRG nerve cells from the primary culture of 2 days were equilibrated by washing 4 times; endogenous in cells; host or cells: primary culture of dorsal root ganglion (DRG) neurons from neonatal SD rats
The experiment can be described thus: 45Ca influx test (calcium uptake) in primary cultured neonatal rat DRG neurons, capsaicin-stimulated. Format: cell-based, SD rats. The note with it: capsaicin 0.5 µM; for IC50: 45Ca 10 µCi/ml, 10 mins at room temperature, read-out: Antagonist Calcium Uptake Test (IC50); for Antagonist Calcium Uptake Test (% @ 10 µM): 10 µM test compound. On the procedure:
1) Separation of spinal dorsal root ganglia (DRG) in newborn rats and primary culture thereof
Neonatal (2-3 day old or younger than 2-3 day old) SD rats were put in ice for 5 minutes to anesthetize and disinfected with 70% ethanol. DRG of all part of spinal cord were dissected (Wood et al., 1988, J. Neurosci. 8, pp3208-3220) and collected in DME/F12 medium to which 1.2g/l sodium bicarbonate, 50mg/l gentamycin were added. The DRG were incubated sequentially at 37°C for 30 min in 200 U/ml collagenase and 2.5mg/ml trypsin, separately. The gangiia were washed twice with DME/F12 medium supplemented with 10% horse serum, triturated through a fire-polished Pasteur pipette, filtered through Nitex 80 membrane to obtain single cell suspension and the suspension was washed once more. This was subjected to centrifugation, then resuspended in cell culture medium at certain level of cell density. As the cell culture medium, DME/F12 medium supplemented with 10% horse serum was diluted with identical medium conditioned by C6 glioma cells 2 days on a confluent monolayer (1:1), and NGF (Nerve Growth Factor) was added to adjust 200ng/ml as final concentration. After the cells were grown 2 days in medium where cytosine arabinoside (Ara-C, 100 µM) was added to kill dividing nonneuronal cells, medium was changed to one without Ara-C. The resuspended cells were plated at a density of 1500-2000 neurons/well onto Terasaki plates previously coated with 10 µg/ml poly-D-ornithine.
2) ^45 Ca influx experiments
DRG nerve cells from the primary culture of 2 days were equilibrated by washing 4 times with HEPES (10mM, pH 7.4)-buffered Ca ^2+, Mg^2+-free HBSS (H-HBSS). The solution in each well was removed from the individual well. Medium containing the test compound plus capsaicin (final concentration 0.5 µM) and ^45Ca (final concentration 10 µCi/ml) in H-HBSS was added to each well and incubated at room temperature for 10 mins. Terasaki plates were washed five times with H-HBSS and dried at room temperature. To each well, 0.3% SDS (10 µl) was added to elute ^45Ca. After the addition of scintillation cocktail of into each well, the amount of ^45Ca influx into neuron was measured by counting radioactivity. […] [Table 1] Results of Calcium Influx Test

In experiment [2] the test system is Male ICR mice. The experiment in a line: Analgesic activity test: mouse writhing test induced with phenyl-p-quinone. The note with it: ip, 0.5 h, 30 min before phenyl-p-quinone, read-out: Analgesic effect (%Inhibition); for inhibition in vivo at 1 mg/kg: Dose 1 mg/kg intraperitoneally. In kind it is in vivo. On the procedure: 2. Analgesic activity test: Mouse writhing test by inducing with phenyl-p-quinone
Male ICR mice (mean body weight 25g) were maintained in a controlled lighting environment (12 h on/ 12 h off) for experiment. Animals received an intraperitoneal injection of 0.3ml of the chemical irritant phenyl-p-quinone (dissolved in saline containing 5% ethanol to be a dose of 4.5mg/kg) and 6 mins later, the number of abdominal constrictions was counted in the subsequent 6 mins period. Animals (10 animals/group) received 0.2ml of test compounds solution in vehicle of ethanol/Tween 80/saline (10/10/80) intraperitoneally 30 min before the injection of phenyl-p-quinone. A reduction in the number of writhes responding to the test drug compound relative to the number responding in saline control group was considered to be indicative of an analgesic effect. Analgesic effect was calculated by % inhibition equation (% inhibition=(C-T)/C x 100), wherein C and T represent the number of writhes in control and compound-treated group, respectively (Table 2).
On the technique in general: An intraperitoneal irritant provokes the stretching counted in writhing tests.

T1 sequence (O35433 whole entry): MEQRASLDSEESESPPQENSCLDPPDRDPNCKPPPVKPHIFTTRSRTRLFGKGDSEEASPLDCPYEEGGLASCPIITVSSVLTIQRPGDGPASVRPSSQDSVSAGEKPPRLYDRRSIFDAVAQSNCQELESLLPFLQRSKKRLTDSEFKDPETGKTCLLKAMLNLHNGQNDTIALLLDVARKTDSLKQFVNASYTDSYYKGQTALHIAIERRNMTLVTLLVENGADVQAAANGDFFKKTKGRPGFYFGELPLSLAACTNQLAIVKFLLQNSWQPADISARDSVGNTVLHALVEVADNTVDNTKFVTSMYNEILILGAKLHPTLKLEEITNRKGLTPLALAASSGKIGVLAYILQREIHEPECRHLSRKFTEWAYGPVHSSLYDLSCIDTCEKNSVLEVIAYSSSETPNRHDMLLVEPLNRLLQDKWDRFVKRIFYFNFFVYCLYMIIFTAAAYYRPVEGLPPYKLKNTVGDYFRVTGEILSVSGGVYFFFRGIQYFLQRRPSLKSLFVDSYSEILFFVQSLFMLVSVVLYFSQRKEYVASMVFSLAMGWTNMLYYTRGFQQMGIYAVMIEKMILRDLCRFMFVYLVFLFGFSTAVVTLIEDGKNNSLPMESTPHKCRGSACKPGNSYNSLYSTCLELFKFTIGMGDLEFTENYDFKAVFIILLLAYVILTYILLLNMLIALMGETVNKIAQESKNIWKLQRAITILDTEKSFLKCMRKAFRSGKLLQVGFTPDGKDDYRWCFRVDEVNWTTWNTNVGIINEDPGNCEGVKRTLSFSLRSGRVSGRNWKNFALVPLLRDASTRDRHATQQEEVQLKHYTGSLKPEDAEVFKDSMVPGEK

On to `CC(C)(C)c1ccc(OCC(=O)NCc2ccc(NS(C)(=O)=O)c(F)c2)cc1` [Example 2, 2-(4-tert-Butylphenoxy)-N-(3-fluoro-4-methanesulfonylaminobenzyl)acetamide], for which the concentration for half-maximal inhibition (IC50) in experiment [1] came out at 8.6 nM. The inhibition in vivo at 0.3 mg/kg in experiment [2] (Dose 0.3 mg/kg intraperitoneally) was 51%.
Consider `CC(C)(C)c1ccc(OCC(=O)NCc2ccc(NS(C)(=O)=O)c(Cl)c2)cc1` [Example 3, 2-(4-tert-Butylphenoxy)-N-(3-chloro-4-methanesulfonylaminobenzyl)-acetamide], for which the half-maximal inhibitory concentration (IC50) in experiment [1] is 180 nM. Besides, the inhibition in vivo at 1 mg/kg in experiment [2] is 39%.
The matching figures for `C=Cc1cc(CNC(=O)COc2ccc(C(C)(C)C)cc2)cc(F)c1NS(C)(=O)=O` [Example 5, 2-(4-tert-Butylphenoxy)-N-(3-fluoro-4-methanesulfonylamino-5-vinylbenzyl)acetamide]: 34 nM and 59%.
For the compound `C#Cc1cc(CNC(=O)COc2ccc(C(C)(C)C)cc2)cc(F)c1NS(C)(=O)=O` [Example 6, 2-(4-tert-Butylphenoxy)-N-(3-ethynyl-5-fluoro-4-methanesulfonylaminobenzyl)acetamide], in experiment [1], the 50% inhibitory concentration (IC50) was 19 nM. For the same compound, the inhibition in vivo at 0.1 mg/kg in experiment [2] (Dose 0.1 mg/kg intraperitoneally) was determined as 41%.
As to `C[C@@H](NC(=O)COc1ccc(C(C)(C)C)cc1)c1ccc(NS(C)(=O)=O)c(F)c1` [Example 12, (R)-2-(4-tert-Butylphenoxy)-N-[1-(3-fluoro-4-methanesuffonylaminophenyl)ethyl]acetamide], the IC50 in experiment [1] amounted to 71 nM. In experiment [2], the inhibition in vivo at 1 mg/kg is 27%.
The like results for `CC(C)(C)c1ccc(OCC(=NC#N)NCc2ccc(NS(C)(=O)=O)c(F)c2)cc1` [Example 18, 2-(4-tert-Butylphenoxy)-N-(3-fluoro-4-methanesulfonylaminobenzyl)-N'-cyanoacetamidine] were, in that order, 120 nM and 33%.
Turning to `CS(=O)(=O)Nc1ccc(CNC(=O)COc2ccc(C(F)(F)F)cc2)cc1F` [Example 24, N-(3-Fluoro-4-methanesulfonylamino-benzyl)-2-(4-trifluoromethylphenoxy)-acetamide], the IC50 in experiment [1] stood at 1300 nM. Moreover, the inhibition in vivo at 10 mg/kg in experiment [2] (Dose 10 mg/kg intraperitoneally) was found to be 28%.
As to `CS(=O)(=O)Nc1ccc(CNC(=O)COc2cccc(Cl)c2)cc1F` [Example 42, N-(3-Fluoro-4-methanesulfonylaminobenzyl)-2-(3-chlorophenoxy)acetamide], the 50% inhibitory concentration (IC50) in experiment [1] was more than 10000 nM.
Still for that read-out and setting: as for `CS(=O)(=O)Nc1ccc(CNC(=O)COc2ccc(C(F)(F)F)cc2N2CCOCC2)cc1F` [Example 43, N-(3-Fluoro-4-methanesulfonylamino-benzyl)-2-(2-morpholin-4-yl-4-trifluoromethyl-phenoxy)-acetamide], the figure is more than 10000 nM; as for `CC(=O)c1cc(C(F)(F)F)ccc1OCC(=O)NCc1ccc(NS(C)(=O)=O)c(F)c1` [Example 44, 2-(2-Acetyl-4-trifluoromethyl-phenoxy)-N-(3-fluoro-4-methanesulfonylamino-benzyl)-acetamide], more than 10000 nM; as for `CS(=O)(=O)Nc1ccc(CNC(=O)COc2ccc(Br)cc2)cc1F` [Example 45, 2-(4-Bromo-phenoxy)-N-(3-fluoro-4-methanesulfonylamino-benzyl)-acetamide], 3700 nM.
On the same count and under the same terms, then `CS(=O)(=O)Nc1ccc(CNC(=O)COc2cccc(Br)c2)cc1F` [Example 46, 2-(3-Bromo-phenoxy)-N-(3-fluoro-4-methanesulfonylamino-benzyl)-acetamide], with 1700 nM; and `CC(C)(C)c1ccc(OCC(=O)NCc2cc(F)c(NS(C)(=O)=O)c(C#N)c2)cc1` [Example 47, 2-[4-(tert-butyl)phenoxy]-N-(3-cyano-5-fluoro-4-methanesulfonyl Amino-benzyl)acetamide], with 150 nM.
Same read-out and setting: as for `CC(C)(C)c1ccc(OC(F)C(=O)NCc2ccc(NS(C)(=O)=O)c(F)c2)cc1` (centres unmarked) [Example 48, 2-(4-tert-Butylphenoxy)-2-fluoro-N-(3-fluoro-4-methanesulfonylaminobenzyl)acetamide], the figure is 180 nM; as for `CS(=O)(=O)Nc1ccc(CNC(=O)COc2ccccc2C(F)(F)F)cc1F` [Example 51, 2-(2-trifluoromethyl-phenoxy)-N-(3-fluoro-4-methanesulfonylaminobenzyl)-acetamide], more than 10000 nM.
Take `CC(C)c1ccc(OCC(=O)NCc2ccc(NS(C)(=O)=O)c(F)c2)cc1` [Example 52, N-(3-Fluoro-4-methanesulfonylaminobenzyl)-2-(4-isopropylphenoxy)acetamide]: the concentration for half-maximal inhibition (IC50) in experiment [1] was determined as 69 nM. For the same compound, in experiment [2], the inhibition in vivo at 1 mg/kg stood at 49%.
Take `CS(=O)(=O)Nc1ccc(CNC(=O)COc2ccc(F)c(F)c2)cc1F` [Example 54, N-(3-Fluoro-4-methanesulfonylaminobenzyl)-2-(3,4-difluorophenoxy)acetamide]: in experiment [1], the IC50 is more than 10000 nM.
On the same count and under the same terms, then `CC(C)(C)c1ccc(OCC(=O)NCc2ccc(NS(C)(=O)=O)c(F)c2)c(C(C)(C)C)c1` [Example 55, N-(3-Fluoro-4-methanesulfonylaminobenzyl)-2-(2,4-di-tert-butylphenoxy)acetamide], with 5600 nM; and `CS(=O)(=O)Nc1ccc(CNC(=O)COCc2ccc(C(F)(F)F)cc2C(F)(F)F)cc1F` [Example 56, N-(3-Fluoro-4-methanesulfonylaminobenzyl)-2-(2,4-bis(trifluoromethyl)benzyloxy)acetamide], with 5100 nM; and `CCC(C)(C)c1ccc(OCC(=O)NCc2ccc(NS(C)(=O)=O)c(F)c2)cc1` [Example 57, N-(3-Fluoro-4-methanesulfonylaminobenzyl)-2-(4-(1,1-dimethylpropyl)phenoxy)acetamide], with 130 nM.
Same read-out and setting: as for `CC(C)(C)C(=O)OCc1cc(C(F)(F)F)ccc1OCC(=O)NCc1ccc(NS(C)(=O)=O)c(F)c1` [Example 58, 2,2-Dimethyl-propionic acid 2-[(3-fluoro-4-methanesulfonylaminobenzylcarbamoyl)-methoxy]-5-trifluoromethyl-benzyl ester], the figure is 3000 nM; as for `CS(=O)(=O)Nc1ccc(CNC(=O)COc2ccc(Cl)c(F)c2)cc1F` [Example 59, N-(3-Fluoro-4-methanesulfonylaminobenzyl)-2-(4-chloro-3-fluorophenoxy)acetamide], more than 10000 nM.
Same read-out and setting: then `CS(=O)(=O)Nc1ccc(CNC(=O)COc2ccc(-c3ccccc3Cl)cc2)cc1F` [Example 60, 2-(2'-Chloro-biphenyl-4-yloxy)-N-(3-fluoro-4-methanesulfonylaminobenzyl)-acetamide], with more than 10000 nM; and `CS(=O)(=O)Nc1ccc(CNC(=O)COc2cccc(-c3ccccc3Cl)c2)cc1F` [Example 61, 2-(2'-Chloro-biphenyl-3-yloxy)-N-(3-fluoro-4-methanesulfonylaminobenzyl)-acetamide], with 4500 nM.
For `CS(=O)(=O)Nc1ccc(CNC(=O)COc2ccc3c(c2)CCC3)cc1F` [Example 62, N-(3-Fluoro-4-methanesulfonylaminobenzyl)-2-(indan-5-yloxy)acetamide], in experiment [1], the “Antagonist Calcium Uptake Test (% @ 10 µM)” value is 82% @ 10 µM.
On the same count and under the same terms, as for `CS(=O)(=O)Nc1ccc(CNC(=O)COc2ccccc2C2CCCCC2)cc1F` [Example 63, N-(3-Fluoro-4-methanesulfonylaminobenzyl)-2-(2-cyclohexylphenoxy)acetamide], the figure is 52% @ 10 µM.
Regarding `CS(=O)(=O)Nc1ccc(CNC(=O)COc2ccc(C3CCCCC3)cc2)cc1F` [Example 64, N-(3-fluoro-4-methanesulfonylamino-benzyl)-2-(4-Cyclohexylphenoxy)-acetamide], the concentration for half-maximal inhibition (IC50) in experiment [1] was more than 10000 nM.
